Measured values published in patent US20250213700A1, “COMPOUNDS, COMPOSITIONS, AND METHODS FOR CELL-SPECIFIC PHARMACOLOGY” (Duke University, priority 2022, published 2025).

What was measured:
AMPAR = assay: acute striatal brain slice electrophysiology, AMPAR antagonism; assay type: cell-based, mouse
Protocol: Electrophysiology. Preparation of Brain slices: Mice (8-10 weeks) were injected AAV10 HaloTag™-dTomato to striatum or ventral tegmental area (VTA). After 3-5 weeks, mice were deeply anesthetized with isoflurane and euthanized by decapitation. Coronal brain slices ([…]) containing striatum or VTA were prepared by standard methods using a Vibratome (Leica, VT 1200S), in ice-cold high sucrose cutting solution containing (in mM) 220 sucrose, 3 KCl, 1.25 NaH2PO4, 25 NaHCO3, 12 MgSO4.7H2O, 10 glucose, and 0.2 CaCl2) bubbled with 95% O2 and 5% CO2. […]
Whole-cell patch-clamp recording: The brain slices or retinas were perfused with bubbled aCSF at 29-30° C. with a 2 ml/min flow rate. […] Series resistance was monitored using 5-10 mV hyperpolarizing step throughout the experiment, and cells were discarded if series resistance changed more than ˜15% during the experiment. […] Statistical significance was determined using Student's t or one-way or two-way ANOVA tests. eIPSCs or eEPSCs decay time constants were obtained by fitting a single-exponential function, I(t)=I exp(−t/T)+ISS, where I(t) is the amplitude of the current at time t and ISS is the steady-state current, I is instantaneous current subtracted from Iss, and t is the time constant of decay. […]

[1] = tested on: +HTP somatostatin interneurons and -HTP neurons of V1 visual cortex; assay: 2P calcium imaging of V1 visual responses after contralateral ventricle infusion, SOM-Cre mice; assay type: in vivo, mouse
Protocol: Top left: Mice expressing pan-neuronal GCaMP8s with SOM-specific ^+HTP. Window over V1. DART delivered via the contralateral ventricle. Bottom left: In-vivo and ex-vivo expression and dye capture. Right: Mice presented oriented visual gratings, 2P Ca^2+ imaging obtained before and 5-6 hr after infusion of 0.3 nmole Alexa647.1^DART.2+3 nmole YM90K.1^DART.2 (2 μL volume) into the contralateral ventricle.
Next, it was examined whether this strategy could deliver a pharmacologically active DART to genetically defined cells. A surgery was performed in which AAV DIO +HTPGPI was injected into the V1 visual cortex of SOM-Cre mice for cell-specific expression in somatostatin interneurons, along with a co-injected AAV-GCaMP8s virus for pan-neuronal neural activity monitoring. A cannula was implanted in the contralateral ventricle, and glass window over V1. Following surgical recovery, a mixture of YM90K.1DART.2+Alexa647.1DART.2 was infused. […] To test for pharmacological effects, 2P calcium imaging of +HTP and −HTP was performed while mice were presented with oriented gratings. A reduction in +HTP visual response was apparent 4 hours post DART infusion. This reduction persisted even after 24 hours post infusion.

[2] = 5-6 hr after infusion of 3 nmole with 0.3 nmole Alexa647.1DART.2

COc1cc(CCCCl)ccc1CCOCCNC(=O)c1ccc(CNC(=O)CCOCCOCCOCCOCCOCCOCCOCCOCCOCCOCCOCCOCCOCCOCCOCCOCCOCCOCCOCCOCCOCCOCCOCCOCCOCCOCCOCCOCCOCCOCCOCCOCCOCCOCCOCCOCCn2cc(COCCOCCOCCOCCOCCOCCNC(=O)CCCn3c(=O)c(=O)[nH]c4cc([N+](=O)[O-])c(-n5ccnc5)cc43)nn2)cc1 [YM90K.1DART.2]
acceleration in comparison to predecessor (AMPAR): ~10 fold | time to half-block of AMPAR (AMPAR; +HTP neurons, 0.3 µM dose): 5 min | responses in +HTP SOM cells [1, 2]: reduced | responses in -HTP putative pyramidal cells [1, 2]: unchanged or increased | +HTP visual response ([1]; 4 hours post DART infusion): reduction | -HTP cells visual response ([1]; 24 hours post infusion): no change or increase in visual response | +HTP cells visual response relative to pre-DART ([1]; 24 hours post infusion, 50% contrast): decrease in visual response
